# Laboratory results as given in patent US20030207933A1, “Compositions and methods for increasing the sensitivity of apoptosis-resistant tumor cells to inducers of apoptosis” (priority 2002, published 2003).
# Assays:
# [1] = test system: HL-60 Bcl-2 cells; assay: DNA fragmentation (release of 3H-labeled DNA fragments) in Bcl-2-transfected HL-60 cells; format: cell-based, human
# [2] = test system: mice; assay: Multiple dose toxicity with histopathological analysis; format: in vivo; conditions: doxorubicin 5 mg/kg alone
# Protocol: In the present study, more extensive toxicity studies with histopathological analysis of seven different tissues was performed on W-143 at a commercial lab.
# Groups of six mice (3 male and 3 females) each were given three i.p. injections at two day intervals of vehicle, doxorubicin 5 mg/kg alone, W-143 200 mg/kg alone or both together. On day 5 and day 15 after the last injection, mice were sacrificed, necropsied, and tissue samples processed. Tissues examined include bone marrow, liver, heart, small and large intestine, 1 sex organ, and kidney.
# [3] = test system: RIF-1 fibrosarcoma; assay: RIF-1 fibrosarcoma tumor growth in vivo; design: species or system mice
# Excerpt: The present study tested in the ability of W-188 to synergize with Dox and inhibit tumor growth in vivo. The RIF-1 fibrosarcoma model was used because this model has been well-characterized, and naturally expresses high Bcl-2 levels and has a consistent growth pattern (Nahabedian, M. Y., et al., J. Natl. Can. Inst., 1988, 80:739; Chang, M-J., et al., Cancer Res., 1994, 54:5380; Srivastana, M., et al., J. Biol. Chem., 2001, 276:15481).
# Groups of five mice each were inoculated s.c. with RIF-1 cells. The tumors were allowed to grow for 12 days to a size of 0.5 cm diameter, which was designated day 0. The mice were then given five i.p. injections every other day with vehicle, Dox 2.5 mg/kg, Dox 5.0 mg/kg, W-188 100 mg/kg, and Dox 5.0 mg/kg+W-188 100 mg/kg. The mice were weighed and the tumor size measured every day.
# The protocol was similar to that described for the W-188 experiment in Example 8, except that in this study, mice with established tumors received only three injections of W-143 or Dox every other day starting on day 0.
# [4] = test system: Bcl-2; assay: Western blot for expression of Bcl-2 in RIF-1 tumors in vivo; design: species or system mice; conditions: Dox alone; day 15; FIG. 16
# Excerpt: Cells were dissociated, lysed, and the nuclei and mitochondria separated by differential centrifugation. RIF-1 cells cultured in vitro were processed in a similar manner as a positive control. Equal amounts of protein extracts were separated by electrophoresis and analyzed by Western blot for expression of Bcl-2. […] The pattern of Bcl-2 expression was similar in the nuclei, although the overall levels were lower than in the mitochondria. […] Most likely, this discrepancy can be explained by the fact that this line is transfected with exogenous Bcl-2, whereas the RIF-1 line expresses endogenous Bcl-2 under control of its natural promoter. […] Alternatively, W-188 and W-143 may differ in their mechanisms of action, although this conclusion seems less likely in view of the structural similarity of these two compounds.
# [5] = Body weight of RIF-1 tumor bearing mice; conditions: Dox 5 mg/kg alone; FIG. 15
# Excerpt: Groups of five mice each were inoculated s.c. with RIF-1 cells. The tumors were allowed to grow for 12 days to a size of 0.5 cm diameter, which was designated day 0. […] The mice were weighed and the tumor size measured every day.
# [6] = test system: HL-60 neo cells; assay: DNA fragmentation (release of 3H-labeled DNA fragments) in vector control HL-60 neo cells; format: cell-based, human
# Protocol: The present study evaluated the ability of W-188 to sensitize Bcl-2-overexpressing cells to induce apoptosis. The human myelogenous leukemia, HL-60, and the human B cell leukemia, PW, normally express very low levels of Bcl-2. As a model system, W-188 and various analogs and derivatives were tested in normal HL-60 and PW cells and in Bcl-2-transfected HL-60 and PW cells that overexpress high levels of Bcl-2 (see Gilbert et al., J. Cell Physiol., 1996, 171:299).
# As depicted in FIG. 4, HL-60 cells (Panel A) and PW cells (Panel B) cells were exposed to various apoptosis inducers: TNF at 5 ng/ml; etoposide at 20 μM; and UV at 0.08 J/cm^2. The release of 3H-labeled DNA fragments was measured after 5 h. Normal HL-60 and PW cells were equally sensitive to apoptosis inducers as compared with cells that were transfected with vector encoding neomycin resistance (HL-60 neo and PW neo) only. […] W-188 alone was nontoxic. The addition of W-188 to the neo cell lines caused a 1.5-2 fold increase in DNA fragmentation in response to the various apoptosis inducers.
# [7] = Cytotoxicity to normal venous endothelial cells (MTT dye reduction assay); format: cell-based, human; conditions: human, normal venous endothelial cells, etoposide 100 μM, W-188 0 μg/mL; 6 h
# [8] = test system: AP24; assay: Etoposide-induced activation of AP24 (AAPVase) in HL-60 and PW leukemia lines; format: cell-based, human; conditions: etoposide 50 μM, 3 h
# [9] = test system: overexpression of Bcl-2; assay: Comparison with compounds reported to counteract Bcl-2; format: cell-based; conditions: data not shown
# Excerpt: W-188 was then compared to other compounds previously reported to counteract Bcl-2 (Marchetti, P., et al., J. Immunol., 1996, 157:4830; Hirsch, T., et al., Exp. Cell Res., 1998, 241:426).
# [10] = Exp 1, etoposide 5 μM + compound 10 μM
# [11] = Exp 4, etoposide 5 μM + compound 10 μM
# [12] = Exp 3, etoposide 5 μM + compound 20 μM
# [13] = Exp 2, etoposide 10 μM + compound 10 μM
compound,measurement,setting,value
"Cl.Cl.Cl.Cl.O.O=C(O)CN1CCCN(CC(=O)O)CCN(CC(=O)O)CCCN(CC(=O)O)CC1 [1,4,8,11-tetraazacyclotetra-decane-1,4,8,11-tetraacetic acid tetrahydrochioride hydrate]",% DNA Fragmentation,[1]; [10],0%
"Cc1nc(-c2nc(C)c(C)[nH]2)[nH]c1C [2,2′-bis(4,5-dimethyl-imidazole)]",% DNA Fragmentation,[1]; [10],2%
"CC(C)(C)c1ccc2c(c1)-c1nc3nc(nc4[nH]c(nc5[nH]c(nc-2n1)c1cc(C(C)(C)C)ccc51)c1cc(C(C)(C)C)ccc41)-c1ccc(C(C)(C)C)cc1-3 [2,9,16,23-tetra-tert-butyl-29H, 31H-phthalocyanine]",% DNA Fragmentation,[1]; [11],0%
"N#Cc1nc[nH]c1C#N [4,5-dicyanoimidazole]",% DNA Fragmentation,[1]; [10],10%
CC1(C)CC(C#N)CC(C)(C)N1[O] [4-cyano tempo],% DNA Fragmentation,[1]; [10],2%
"Cc1ccc(-c2c3nc(c(-c4ccc(C)cc4)c4ccc([nH]4)c(-c4ccc(C)cc4)c4nc(c(-c5ccc(C)cc5)c5ccc2[nH]5)C=C4)C=C3)cc1 [5,10,15,20-tetra-p-tolyl-21H,23H-porphine]",% DNA Fragmentation,[1]; [11],15%
"COc1cccc2c1C(=O)c1c(O)c3c(c(O)c1C2=O)C[C@@](O)(C(=O)CO)C[C@@H]3O[C@H]1C[C@H](N)[C@H](O)[C@H](C)O1 [Dox, doxorubicin, reference compound]",Histopathology,"[2]; three i.p. injections, day 5",minor vacuolar changes in the liver
same,Histopathology,[2]; day 15,all tissues were normal
same,Effect on tumor growth,"[3]; Dox 5 mg/kg alone, three injections every other day, FIG. 14",only a small effect on tumor growth
same,Effect on tumor growth,"[3]; Dox alone at 2.5 or 5 mg/kg, five i.p. injections every other day, FIG. 11",very little effect on tumor growth
same,Bcl-2 expression in tumor cell mitochondria,[4],expressed high levels of Bcl-2
same,Body weight,[5],toxic causing a significant weight loss on day 7-8
COc1cc([C@@H]2c3cc4c(cc3[C@@H](O[C@@H]3O[C@@H]5CO[C@@H](C)O[C@H]5[C@H](O)[C@H]3O)[C@H]3COC(=O)[C@H]23)OCO4)cc(OC)c1O [Etoposide],% DNA Fragmentation,"[1]; Exp 1, etoposide 5 μM alone",0%
same,% DNA Fragmentation,"[1]; Exp 2, etoposide 10 μM alone",0%
same,% DNA Fragmentation,"[1]; Exp 3, etoposide 5 μM alone",24%
same,% DNA Fragmentation,"[1]; Exp 4, etoposide 5 μM alone",3%
same,% DNA Fragmentation,"[1]; Exp 5, etoposide 10 μM alone",0%
same,% DNA Fragmentation,"[6]; Exp 1, etoposide 5 μM alone",72%
same,% DNA Fragmentation,"[6]; Exp 2, etoposide 10 μM alone",57%
same,% DNA Fragmentation,"[6]; Exp 3, etoposide 5 μM alone",97%
same,% DNA Fragmentation,"[6]; Exp 4, etoposide 5 μM alone",63%
same,% DNA Fragmentation,"[6]; Exp 5, etoposide 10 μM alone",57%
same,"cytotoxicity at 6 h, 100 μM",[7],22 ± 3.4%
same,"AP24 Activity (AAPVase, nmol/mg/hr)",[8]; HL-60 Bcl-2,14 nmol/mg/h
same,"AP24 Activity (AAPVase, nmol/mg/hr)",[8]; HL-60 neo,100 nmol/mg/h
same,"AP24 Activity (AAPVase, nmol/mg/hr)",[8]; PW Bcl-2,12 nmol/mg/h
same,"AP24 Activity (AAPVase, nmol/mg/hr)",[8]; PW neo,88 nmol/mg/h
C=CC1=C(C)c2cc3[n-]c(cc4[n-]c(cc5nc(cc1n2)C(C)=C5C=C)c(C)c4CCC(=O)O)c(CCC(=O)O)c3C.[Fe+2] [Fe protoporphyrin IX],% DNA Fragmentation,[1]; [12],17%
CCC(C)N(C)C(=O)c1cc2ccccc2c(-c2ccccc2Cl)n1 (stereo not drawn) [PK11195],Reversal of the effect of overexpression of Bcl-2,[9]; at 20 μM (the highest non-toxic concentration),completely ineffective
C=CC1=C(C)c2cc3[n-]c(cc4[n-]c(cc5nc(cc1n2)C(C)=C5C=C)c(C)c4CCC(=O)O)c(CCC(=O)O)c3C.[Sn+4] [Sn protoporphyrin IX],% DNA Fragmentation,[1]; [12],5%
CCC1=C(C)C(=O)N/C1=C\c1[nH]c(C)c(CC)c1C [W-145],% DNA Fragmentation,"[1]; Exp 5, etoposide 10 μM + compound 10 μM",28%
C=CC1=C(C)c2cc3[n-]c(cc4[n-]c(cc5nc(cc1n2)C(C)=C5C=C)c(C)c4CCC(=O)O)c(CCC(=O)O)c3C.[Zn+2] [Zn protoporphyrin IX],% DNA Fragmentation,[1]; [12],19%
C=CC1=C(C)/C(=C/c2[nH]c(Cc3[nH]c(/C=C4\NC(=O)C(C)=C4C=C)c(C)c3CCC(=O)O)c(CCC(=O)O)c2C)NC1=O [bilirubin],% DNA Fragmentation,[1]; [13],17%
C=CC1=C(C)/C(=C/C2=NC(=C\c3[nH]c(/C=C4\NC(=O)C(C)=C4C=C)c(C)c3CCC(=O)O)/C(CCC(=O)O)=C2C)NC1=O [biliverdin],% DNA Fragmentation,[1]; [12],20%
[Co+2].c1ccc2c(c1)-c1nc-2nc2[n-]c(nc3nc(nc4[n-]c(n1)c1ccccc41)-c1ccccc1-3)c1ccccc21 [cobalt (II) pthalocyanine],% DNA Fragmentation,[1]; [10],9%
CC1=C(CCC(=O)O)c2cc3nc(cc4[nH]c(cc5[nH]c(cc1n2)c(C)c5CCC(=O)O)c(CCC(=O)O)c4C)C(CCC(=O)O)=C3C [coproporphyrin],% DNA Fragmentation,[1]; [13],15%
Br.Br.CCC1=C(C)c2cc3[nH]c(cc4[nH]c(cc5nc(cc1n2)C(C)=C5CC)c(C)c4CC)c(C)c3CC [etioporphyrin I dihydrobromide],% DNA Fragmentation,[1]; [11],25%
C=CC1=C(C)c2cc3[n-]c(cc4[n-]c(cc5nc(cc1n2)C(C)=C5C=C)c(C)c4CCC(=O)O)c(CCC(=O)O)c3C.O.[Fe+2] [hematin],% DNA Fragmentation,[1]; [10],2%
C1=Cc2cc3ccc(cc4ccc(cc5nc(cc1n2)C=C5)[nH]4)[nH]3 [porphyin],% DNA Fragmentation,[1]; [13],10%
C=CC1=C(C)c2cc3[nH]c(cc4nc(cc5[nH]c(cc1n2)c(C)c5CCC(=O)O)C(CCC(=O)O)=C4C)c(C)c3C=C [protoporphyrin IX],% DNA Fragmentation,[1]; [13],3%
CC(=O)O[C@H]1C(=O)[C@@]2(C)[C@H]([C@H](OC(=O)c3ccccc3)[C@]3(O)C[C@H](OC(=O)[C@H](O)[C@@H](NC(=O)c4ccccc4)c4ccccc4)C(C)=C1C3(C)C)[C@]1(OC(C)=O)CO[C@@H]1C[C@@H]2O [taxol],"Reversal of the effect of overexpression of Bcl-2, compared with W-188",[9],inferior to W-188
deuterporphyrin IX dimethyl ester,% DNA Fragmentation,[1]; [10],8%
